Experimental data taken from patent publication US20200246347A1, “Substituted Pyrrolopyridine-Derivatives” (BAYER PHARMA AKTIENGESELLSCHAFT, priority 2017, published 2020).

Key:
MAP4K1 = MAP4K1 (Homo sapiens, UniProt Q92918); test: biochemical
pSer376-SLP-76 = test: Phosphorylation assay in human cell line (Jurkat E6.1 overexpressing FLAG-tagged SLP-76, a-CD3 stimulated); type: cell-based; conditions: 30 min at 37° C., Jurkat E6.1 cells; for % amount of pSer376-SLP-76 @ 10 μM: 10 μM compound; for % amount of pSer376-SLP-76 @ 20 μM: 20 μM compound
Procedure: Phosphorylation assays were carried out in Jurkat E6.1 cells from American Type Culture Collection (ATCC) stably overexpressing human FLAG-tagged SLP-76 (proprietary). […] Applied compounds were tested at either fixed concentration of 10 μmol/L and 20 μmol/L or in a 8 point dose response titration of increase compound concentration with 10 nmol/L. 50 nmol/L. 100 nmol/L. 500 nmol/L. 1 μmol/L. 5 μmol/L. 10 μmol/L and 20 μmol/L in triplicates. The cells were washed once in phosphate-buffered saline (pH 7.4). Cells were lysed using a lysis buffer containing 50 mmol/L Tris-Cl (pH 7.5). 150 mM NaCl. 2 mM EDTA. 1% Triton-X 100. 0.5% Na-DOC. 0.1% SDS. […] Probe antibodies used were a rabbit monoclonal antibody supernatant raised against human phospho-Ser376-SLP-76 peptide (proprietary) and for mormalization an a-alpha-Tubulin. mouse monoclonal antibody (Sigma #T9026). […] Cells with a-CD3 treatment only were used as negative control (min control. which represent the minimally possible inhibition of pSer376-SLP-76 by a test compound)
AUC values of each respective test sample were normalized using the AUC of housekeeping gene alpha-Tubulin and AUC of pSer376-SLP-76 of the min control. The percentage of the amount of pSer-SLP-76 in the treatment samples was calculated using the max control and min control values of the respective Peggy Sue™ run.

Sequence of MAP4K1 (Q92918 whole entry): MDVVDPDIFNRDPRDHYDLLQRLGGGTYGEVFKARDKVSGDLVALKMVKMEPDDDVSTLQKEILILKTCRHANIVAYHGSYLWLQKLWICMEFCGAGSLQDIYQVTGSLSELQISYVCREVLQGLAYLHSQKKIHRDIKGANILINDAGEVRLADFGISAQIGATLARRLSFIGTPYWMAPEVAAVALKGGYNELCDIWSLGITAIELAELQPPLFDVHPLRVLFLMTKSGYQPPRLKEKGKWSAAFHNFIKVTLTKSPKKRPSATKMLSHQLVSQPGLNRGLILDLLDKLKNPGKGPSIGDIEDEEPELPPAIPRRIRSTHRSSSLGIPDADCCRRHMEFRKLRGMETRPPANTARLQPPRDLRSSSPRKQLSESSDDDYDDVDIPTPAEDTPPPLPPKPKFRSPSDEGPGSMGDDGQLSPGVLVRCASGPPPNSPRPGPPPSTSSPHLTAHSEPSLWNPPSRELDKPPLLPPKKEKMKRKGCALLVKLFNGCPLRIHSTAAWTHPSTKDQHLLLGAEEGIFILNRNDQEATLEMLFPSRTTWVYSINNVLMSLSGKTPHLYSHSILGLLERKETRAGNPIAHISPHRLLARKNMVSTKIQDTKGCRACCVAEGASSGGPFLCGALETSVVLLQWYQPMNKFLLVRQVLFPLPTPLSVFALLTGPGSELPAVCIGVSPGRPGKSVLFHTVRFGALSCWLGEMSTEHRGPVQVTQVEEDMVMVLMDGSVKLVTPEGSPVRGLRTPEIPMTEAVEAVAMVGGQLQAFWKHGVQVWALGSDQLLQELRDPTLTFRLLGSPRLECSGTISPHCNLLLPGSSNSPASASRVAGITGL

SMILES	IC50 (MAP4K1)	% amount of pSer376-SLP-76 @ 10 μM (pSer376-SLP-76)	% amount of pSer376-SLP-76 @ 20 μM (pSer376-SLP-76)
N#Cc1cc(NC(=O)NCCN2CCOCC2)ccc1Oc1ccnc2[nH]cc(C(F)(F)F)c12 [Example 6, 1-(3-cyano-4-{[3-(trifluoromethyl)-1H-pyrrolo[2,3-b]pyridin-4-yl]oxy}phenyl)-3-[2-(morpholin-4-yl)ethyl]urea]	212 nM		
N#Cc1cc(NC(=O)NCCCN2CCOCC2)ccc1Oc1ccnc2[nH]cc(C(F)(F)F)c12 [Example 7, 1-(3-cyano-4-{[3-(trifluoromethyl)-1H-pyrrolo[2,3-b]pyridin-4-yl]oxy}phenyl)-3-[3-(morpholin-4-yl)propyl]urea]	138 nM		
Cc1cc(NC(=O)NCCCN2CCOCC2)ccc1Oc1ccnc2[nH]cc(C(F)(F)F)c12 [Example 4, 1-(3-methyl-4-{[3-(trifluoromethyl)-1H-pyrrolo[2,3-b]pyridin-4-yl]oxy}phenyl)-3-[3-(morpholin-4-yl)propyl]urea]	74 nM	45.6%	18.1%
O=C(NCCN1CCOCC1)Nc1ccc(Oc2ccnc3[nH]cc(C(F)(F)F)c23)cc1 [Example 1, 1-[2-(morpholin-4-yl)ethyl]-3-(4-{[3-(trifluoromethyl)-1H-pyrrolo[2,3-b]pyridin-4-yl]oxy}phenyl)urea]		40.8%	16.0%
Cc1cc(NC(=O)NCCN2CCOCC2)ccc1Oc1ccnc2[nH]cc(C(F)(F)F)c12 [Example 5, 1-(3-methyl-4-{[3-(trifluoromethyl)-1H-pyrrolo[2,3-b]pyridin-4-yl]oxy}phenyl)-3-[2-(morpholin-4-yl)ethyl]urea]		48.1%	25.3%
